Columns and labels:
MV4-11 [1] = experiment: Antiproliferative activity against human MV4-11 cells by CCK-8 assay; format: functional, cell-based
Interleukin-1 beta = target: T1, Interleukin-1 beta (Mus musculus, UniProt P10749); experiment: Inhibition of IL-1beta in mouse BMDM cells; format: cell-based
T1 sequence (P10749 whole entry): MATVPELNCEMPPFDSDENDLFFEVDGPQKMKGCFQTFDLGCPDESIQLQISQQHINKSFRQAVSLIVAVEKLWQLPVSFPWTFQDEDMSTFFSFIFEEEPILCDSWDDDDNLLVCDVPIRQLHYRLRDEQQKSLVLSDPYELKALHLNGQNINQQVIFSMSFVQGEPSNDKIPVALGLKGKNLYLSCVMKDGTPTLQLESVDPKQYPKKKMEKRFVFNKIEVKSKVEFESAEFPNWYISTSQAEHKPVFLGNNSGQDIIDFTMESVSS

[2] = target: T2, Bromodomain-containing protein 4 (Homo sapiens, UniProt O60885); experiment: Binding affinity to BRD4-BD1 (unknown origin)
[3] = target: T2, Bromodomain-containing protein 4; experiment: Binding affinity to BRD4-BD2 (unknown origin)
MV4-11 [4] = experiment: Antiproliferative activity against human MV4-11 cells by Cell Titer Glo assay; format: functional, cell-based

O=c1cc(-c2ccc(O)c(O)c2)oc2c(O)c(O)ccc12
IC50 (MV4-11 [1]): 30200 nM

COc1cc(OC)c2c(=O)[nH]c(-c3cc(C)c(OCCN4CCCC4)c(C)c3)nc2c1
IC50 (Interleukin-1 beta): 2100 nM

CCNC(=O)C1=CC2C(c3cc(S(=O)(=O)CC)ccc3Oc3c(C)cc(F)cc3C)=CN(C)C(=O)C2N1 (stereo not given)
Ki [2]: 79 nM | Ki [3]: 1.3 nM

CC(=O)N1c2ccc(-c3cc[nH]n3)cc2[C@H](Nc2ccc(C#N)cc2)C[C@@H]1C
IC50 (MV4-11 [4]): 8 nM

Reference: ChEMBL document CHEMBL5120801, “Targeting Bromodomain-Selective Inhibitors of BET Proteins in Drug Discovery and Development” (J Med Chem, 2022)
